Data taken from PMC7486383, “Protrudin and PDZD8 contribute to neuronal integrity by promoting lipid extraction required for endosome maturation” (Nature Communications, 2020).
Where a name gives a salt, the structure may show the parent alone.

Assays:
GST-PDZD8(ΔTM) = biological target: T1, GST-PDZD8(ΔTM) (Mus musculus, UniProt B9EJ80); experiment: liposome-FRET lipid extraction assay; assay type: binding; conditions: labelled compound; donor liposomes PC/PE/rhodamine-PE; 25 °C
T1 sequence (B9EJ80 25-1147 limits assumed): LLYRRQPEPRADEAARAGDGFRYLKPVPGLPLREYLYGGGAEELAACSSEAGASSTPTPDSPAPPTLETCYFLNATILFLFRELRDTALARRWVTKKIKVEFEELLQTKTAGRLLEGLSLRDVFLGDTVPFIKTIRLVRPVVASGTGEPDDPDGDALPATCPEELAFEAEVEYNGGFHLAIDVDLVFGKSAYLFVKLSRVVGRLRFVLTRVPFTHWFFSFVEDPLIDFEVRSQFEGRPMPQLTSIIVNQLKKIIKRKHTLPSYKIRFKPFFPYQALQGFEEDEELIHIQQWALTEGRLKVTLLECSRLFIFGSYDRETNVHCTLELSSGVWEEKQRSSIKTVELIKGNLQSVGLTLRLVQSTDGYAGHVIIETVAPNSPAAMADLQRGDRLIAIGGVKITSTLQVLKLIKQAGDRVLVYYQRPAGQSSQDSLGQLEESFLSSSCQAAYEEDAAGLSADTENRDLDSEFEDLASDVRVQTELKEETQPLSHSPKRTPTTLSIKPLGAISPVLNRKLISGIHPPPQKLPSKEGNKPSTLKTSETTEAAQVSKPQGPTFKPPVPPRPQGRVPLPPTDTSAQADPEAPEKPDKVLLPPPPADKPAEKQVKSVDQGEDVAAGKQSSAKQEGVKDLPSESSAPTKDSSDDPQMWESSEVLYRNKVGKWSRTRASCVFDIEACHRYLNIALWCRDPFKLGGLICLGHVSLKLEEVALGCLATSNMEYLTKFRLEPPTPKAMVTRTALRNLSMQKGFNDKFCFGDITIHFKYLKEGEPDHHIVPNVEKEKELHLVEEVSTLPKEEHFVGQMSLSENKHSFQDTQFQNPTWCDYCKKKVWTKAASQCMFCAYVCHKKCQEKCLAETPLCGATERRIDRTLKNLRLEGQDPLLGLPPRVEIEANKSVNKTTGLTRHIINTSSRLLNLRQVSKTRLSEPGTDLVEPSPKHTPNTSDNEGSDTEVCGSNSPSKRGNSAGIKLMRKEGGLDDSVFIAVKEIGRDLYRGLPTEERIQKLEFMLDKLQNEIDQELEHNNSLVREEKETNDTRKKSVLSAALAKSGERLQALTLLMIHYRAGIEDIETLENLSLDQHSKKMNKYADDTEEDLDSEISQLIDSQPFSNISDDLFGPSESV

PDZD8(SMP-PDZ) = biological target: T2, PDZD8(SMP-PDZ) (Mus musculus, UniProt B9EJ80); experiment: liposome-FRET lipid extraction assay; assay type: binding; conditions: labelled compound; donor liposomes PC/PE/rhodamine-PE; 25 °C
T2 sequence (B9EJ80 87-448 limits assumed): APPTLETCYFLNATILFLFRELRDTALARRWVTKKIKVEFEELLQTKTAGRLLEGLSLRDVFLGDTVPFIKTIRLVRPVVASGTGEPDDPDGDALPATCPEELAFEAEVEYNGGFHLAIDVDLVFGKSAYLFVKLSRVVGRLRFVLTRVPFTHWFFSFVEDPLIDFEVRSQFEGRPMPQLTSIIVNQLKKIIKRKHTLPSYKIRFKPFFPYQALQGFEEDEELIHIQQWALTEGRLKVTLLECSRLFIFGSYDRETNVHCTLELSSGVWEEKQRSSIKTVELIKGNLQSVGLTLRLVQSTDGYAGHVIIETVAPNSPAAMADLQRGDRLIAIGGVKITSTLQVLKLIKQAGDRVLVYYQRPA

| SMILES | initial velocity of lipid extraction (GST-PDZD8(ΔTM)) | initial velocity of lipid extraction (PDZD8(SMP-PDZ)) |
| --- | --- | --- |
| CCCCCCCCCCCCC/C=C/[C@@H](O)[C@H](CO)NC(=O)CCCCCNc1ccc([N+](=O)[O-])c2nonc12 [C6-NBD-ceramide, N-{6-[(7-nitro-2-1,3-benzoxadiazol-4-yl)amino]hexanoyl}-D-erythro-sphingosine] | PDZD8(ΔTM) also showed high extraction activity for ceramide | – |
| CCCCCCCCCCCCCCCC(=O)OC[C@H](COP(=O)(O)OC[C@H](N)C(=O)O)OC(=O)CCCCCCCCCCCNc1ccc([N+](=O)[O-])c2nonc12 [NBD-PS, 1-palmitoyl-2-{12-[(7-nitro-2-1,3-benzoxadiazol-4-yl)amino]dodecanoyl}-sn-glycero-3-phosphoserine (ammonium salt)] | with the initial velocity of lipid extraction being greatest for PS | The activity of PDZD8(SMP-PDZ) was also about half that of PDZD8(ΔTM) |
